What is called IC50 is the concentration that gives 50% inhibition.

Where “and” joins values, the source holds several entries; their conditions need not be identical. Equal values may be shown once.

We go through ten compounds from ChEMBL document CHEMBL1136161, “Novel, potent phenethylamide inhibitors of the hepatitis C virus (HCV) NS3 protease: probing the role of P2 aryloxyprolines with hybrid structures” (Bioorg Med Chem Lett, 2003).

The target of the first assay is T1, NS3 (Hepatitis C virus, UniProt A3EZJ3). As to the kind of experiment: Inhibitory concentration against hepatitis C virus (HCV) NS3 protease; Not active. The arrangement: species or system Hepacivirus hominis.
T1 sequence (A3EZJ3 whole entry): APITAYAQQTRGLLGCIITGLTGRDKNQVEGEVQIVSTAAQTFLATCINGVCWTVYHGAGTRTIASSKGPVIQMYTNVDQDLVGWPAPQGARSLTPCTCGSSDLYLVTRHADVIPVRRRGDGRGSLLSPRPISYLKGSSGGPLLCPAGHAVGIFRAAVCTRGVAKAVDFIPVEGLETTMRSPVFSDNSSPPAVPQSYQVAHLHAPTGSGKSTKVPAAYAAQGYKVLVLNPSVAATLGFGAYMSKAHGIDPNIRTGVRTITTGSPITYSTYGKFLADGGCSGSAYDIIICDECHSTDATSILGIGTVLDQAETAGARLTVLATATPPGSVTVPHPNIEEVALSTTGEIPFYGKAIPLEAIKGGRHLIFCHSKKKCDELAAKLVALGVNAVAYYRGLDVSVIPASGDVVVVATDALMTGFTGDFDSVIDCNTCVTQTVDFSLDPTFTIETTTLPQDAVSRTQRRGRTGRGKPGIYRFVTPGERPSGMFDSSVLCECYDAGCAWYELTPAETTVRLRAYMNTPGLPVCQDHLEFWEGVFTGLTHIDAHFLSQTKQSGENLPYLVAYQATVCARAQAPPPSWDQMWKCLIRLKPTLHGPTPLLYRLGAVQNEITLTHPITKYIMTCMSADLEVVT
Take `C=CC1CC1(NC(=O)C1C[C@@H](Oc2ccnc3ccccc23)CN1C(=O)[C@@H](NC(=O)OC(C)(C)C)C(C)(C)C)C(=O)NCCc1ccc(C(=O)O)cc1` (stereo not given in full): the half-maximal inhibitory concentration (IC50) entry is given as “Not Active”. The same measure, in the same setting: the same measure for `C=CC1C[C@@]1(NC(=O)C1C[C@@H](Oc2ccnc3ccccc23)CN1C(=O)[C@@H](NC(=O)OC(C)(C)C)C(C)(C)C)C(=O)O` (stereo not given in full): “Not Active”.

The target of a further assay is T1, NS3. As to the kind of experiment: Inhibitory concentration against hepatitis C virus (HCV) NS3 protease. Also noted: species or system Hepacivirus hominis.
In turn, `COc1ccc2c(O[C@@H]3C[C@@H](C(=O)NC(CC(F)F)C(=O)NCCc4c(F)cc(C(=O)O)cc4F)N(C(=O)[C@@H](NC(=O)OC(C)(C)C)C(C)(C)C)C3)cc(-c3ccccc3)nc2c1` (stereo not given in full) gave an IC50 of 54 nM. As for `COc1ccc2c(O[C@@H]3C[C@@H](C(=O)NC(CC(F)F)C(=O)NCCc4ccc(C(=O)O)cc4)N(C(=O)[C@@H](O)C(C)C)C3)cc(-c3ccccc3)nc2c1` (stereo not given in full), the concentration for half-maximal inhibition (IC50) was 11000 nM. This IC50 lies about 200-fold higher than the previous one.

As to `COc1ccc2c(O[C@@H]3C[C@@H](C(=O)NC(CC(F)F)C(=O)NCCc4c(F)cc(C(=O)O)cc4F)N(C(C)=O)C3)cc(-c3ccccc3)nc2c1` (stereo not given in full), the midpoint of inhibition, the IC50, lay at 38000 nM.

Regarding `C=CC1C[C@]1(NC(=O)C1C[C@@H](Oc2ccnc3ccccc23)CN1C(=O)[C@@H](NC(=O)OC(C)(C)C)C(C)(C)C)C(=O)O` (stereo not given in full), the concentration for half-maximal inhibition (IC50) was 330 nM and < 500 nM. On the same count and under the same terms, the same measure for `COc1ccc2c(O[C@@H]3C[C@@H](C(=O)NC(CC(F)F)C(=O)NCCc4ccc(C(=O)O)cc4)N(C(=O)[C@@H](NC(=O)OCC(C)C)C(C)C)C3)cc(-c3ccccc3)nc2c1` (stereo not given in full): 400 nM. Still for that read-out and setting: for `C=CC1C[C@]1(NC(=O)C1C[C@@H](Oc2cc(-c3ccccc3)nc3cc(OC)ccc23)CN1C(=O)[C@@H](NC(=O)OC(C)(C)C)C(C)(C)C)C(=O)O` (stereo not given in full) the value was 25 nM; for `COc1ccc2c(O[C@@H]3CC(C(=O)NC(CC(F)F)C(=O)O)N(C(=O)[C@@H](NC(=O)OC(C)(C)C)C(C)(C)C)C3)cc(-c3ccccc3)nc2c1` (stereo not given in full), 180 nM.

For the next assay, the target named is T1, NS3. Briefly: Inhibitory concentration against hepatitis C virus (HCV) NS3 protease; Not active at >> 100 uM. The arrangement: species or system Hepacivirus hominis.
Consider `COc1ccc2c(O[C@@H]3C[C@@H](C(=O)NC(CC(F)F)C(=O)NCCc4ccc(C(=O)O)cc4)N(C(=O)C(C)(C)C)C3)cc(-c3ccccc3)nc2c1` (stereo not given in full), for which the IC50 result was “Not Active”.
